Laboratory results published in the NIST ThermoML archive (doi:10.1021/acs.jced.8b00236).
Where “and” joins values, the source holds several entries; their conditions need not be identical. Identical values can stand only once.

What was measured:
[1] = mn = molality of the nth substance listed, in mol/kg; settings: 75 kPa, Liquid; for viscosity: Capillary tube (Ostwald / Ubbelohde) method; for speed of sound: Frequency=3 MHz, Single path-length method; for mass density: Vibrating tube method
[2] = 75 kPa, Liquid, Capillary tube (Ostwald / Ubbelohde) method

O [water] + NCCCC(=O)O
[1], m2 = 0
Settings | viscosity [mPa·s]
288.15 K | 1.146
293.15 K | 1.004
298.15 K | 0.893
303.15 K | 0.797
308.15 K | 0.719

O [water] + NCCCCC(=O)O
[1], m2 = 0
Settings | viscosity [mPa·s]
288.15 K | 1.146
293.15 K | 1.004
298.15 K | 0.893
303.15 K | 0.797
308.15 K | 0.719

O [water] + NCCCCCC(=O)O
[1], m2 = 0
Settings | viscosity [mPa·s]
288.15 K | 1.146
293.15 K | 1.004
298.15 K | 0.893
303.15 K | 0.797
308.15 K | 0.719

[Cl-].[Na+] [sodium chloride] + O
[1]
Settings | mass density, m1 = 0.15 | mass density, m1 = 0.25 | speed of sound, m1 = 0.15 | speed of sound, m1 = 0.25 | viscosity, m1 = 0.15 | viscosity, m1 = 0.25 [mPa·s]
288.15 K | 1005.46 kg/m3 and 1005.45 kg/m3 and 1005.36 kg/m3 | 1009.51 kg/m3 | 1476.6 m/s and 1476.5 m/s | 1483.6 m/s and 1483.4 m/s and 1483.3 m/s | 1.156 mPa·s and 1.158 mPa·s | 1.166
293.15 K | 1004.48 kg/m3 [middle of 4 runs] | 1008.5 kg/m3 and 1008.51 kg/m3 | 1492.3 m/s and 1492.2 m/s | – | 1.016 mPa·s | 1.025
298.15 K | 1003.26 kg/m3 and 1003.27 kg/m3 and 1003.18 kg/m3 | 1007.26 kg/m3 | 1506.2 m/s and 1506 m/s and 1506.1 m/s | 1512.5 m/s and 1512.3 m/s and 1512.2 m/s | 0.905 mPa·s and 0.9049 mPa·s and 0.906 mPa·s | 0.913
303.15 K | 1001.83 kg/m3 [middle of 4 runs] | 1005.78 kg/m3 and 1005.79 kg/m3 | 1518.2 m/s and 1518.1 m/s | 1524.3 m/s and 1524.1 m/s and 1524 m/s | 0.811 mPa·s [middle of 4 runs] | 0.819
308.15 K | 1000.11 kg/m3 [middle of 5 runs] | 1004.12 kg/m3 and 1004.11 kg/m3 | 1528.7 m/s and 1528.6 m/s | 1534.3 m/s [middle of 5 runs] | 0.731 mPa·s and 0.7306 mPa·s and 0.732 mPa·s | 0.739

O [water] + NCCC(=O)O
[1], m2 = 0
Settings | viscosity [mPa·s]
288.15 K | 1.146
293.15 K | 1.004
298.15 K | 0.8929
303.15 K | 0.7965
308.15 K | 0.7187

O [water] + NCC(=O)O
[1], m2 = 0
Settings | viscosity [mPa·s]
288.15 K | 1.146
293.15 K | 1.007
298.15 K | 0.893
303.15 K | 0.797
308.15 K | 0.719

O [water]
[2]
Settings | viscosity
288.15 K | 1.146 mPa·s
293.15 K | 1.007 mPa·s and 1.004 mPa·s
298.15 K | 0.893 mPa·s and 0.8929 mPa·s
303.15 K | 0.797 mPa·s and 0.7965 mPa·s
308.15 K | 0.719 mPa·s and 0.7187 mPa·s
